Test results published in patent publication US9353104B2, “Substituted pyridizinone derivatives as PDE10 inhibitors” (priority 2013, dated 2016).
pKi: −log10 of the molar value.

Target: human PDE10A2 (Homo sapiens (Human), UniProt Q9Y233)
Assay: PDE10 fluorescence polarization (IMAP FP) inhibition assay
Type: biochemical
Details: human PDE10A2 lysate, FAM-labeled cAMP 50 nM, room temperature; read-out: PDE10A Ki
Experimental: The activity of the compounds in accordance with the present invention as PDE10 inhibitors may be readily determined without undue experimentation using a fluorescence polarization (FP) methodology that is well known in the art (Huang, W., et al., J. Biomol Screen, 2002, 7: 215). […] In a typical experiment the PDE10 inhibitory activity of the compounds of the present invention was determined in accordance with the following experimental method. PDE10A2 was amplified from human fetal brain cDNA (Clontech, Mountain View, Calif.) using a forward primer corresponding to nucleotides 56-77 of human PDE10A2 (Accession No. AF127480, Genbank Identifier 4894716), containing a Kozak consensus sequence, and a reverse primer corresponding to nucleotides 2406-2413 of human PDE10A2 (Accession No. AF127480, Genbank Identifier 4894716). Amplification with Easy-A polymerase (Stratagene, La Jolla, Calif.) was 95° C. for 2 minutes followed by thirty three cycles of 95° C. for 40 seconds, 55° C. for 30 seconds, and 72° C. for 2 minutes 48 seconds. Final extension was 72° C. for 7 minutes. The PCR product was TA cloned into pcDNA3.2-TOPO (Invitrogen, Carlsbad, Calif.) according to standard protocol. AD293 cells with 70-80% confluency were transiently transfected with human PDE10A2/pcDNA3.2-TOPO using Lipofectamine 2000 according to manufacturer specifications (Invitrogen, Carlsbad, Calif.). Cells were harvested 48 hours post-transfection and lysed by sonication (setting 3, 10×5 sec pulses) in a buffer containing 20 mM HEPES, 1 mM EDTA and protease inhibitor cocktail (Roche). Lysate was collected by centrifugation at 75,000×g for 20 minutes. Supernatant containing the cytoplasmic fraction was used for evaluation of PDE10A2 activity. The fluorescence polarization assay for cyclic nucleotide phosphodiesterases was performed using an IMAP® FP kit supplied by Molecular Devices, Sunnyvale, Calif. (product #R8139). IMAP® technology has been applied previously to phosphodiesterase assays (Huang, W., et al., J. Biomol Screen, 2002, 7: 215). Assays were performed at room temperature in 384-well microtiter plates with an incubation volume of 20.2 μL. Solutions of test compounds were prepared in DMSO and serially diluted with DMSO to yield 8 μL of each of 10 solutions differing by 3-fold in concentration, at 32 serial dilutions per plate. 100% inhibition is determined using a known PDE10 inhibitor, which can be any compound that is present at 5,000 times its Ki value in the assay described as follows, such as papaverine (see Siuciak, et al. Neuropharmacology (2006) 51:386-396; Becker, et al. Behav Brain Res (2008) 186(2):155-60; Threlfell, et al., J Pharmacol Exp Ther (2009) 328(3):785-795), 2-{4-[pyridin-4-yl-1-(2,2,2-trifluoroethyl)-1H-pyrazol-3-yl]phenoxymethyl}quinoline succinic acid or 2-[4-(1-methyl-4-pyridin-4-yl-1H-pyrazol-3-yl)-phenoxymethyl]quinoline succinic acid (see Schmidt, et al. J Pharmacol Exp Ther (2008) 325:681-690; Threlfell, et al., J Pharmacol Exp Ther (2009) 328(3): 785-795). 0% of inhibition is determined by using DMSO (1% final concentrations).
A Labcyte Echo 555 (Labcyte, Sunnyvale, Calif.) is used to dispense 200 nL from each well of the titration plate to the 384 well assay plate. A solution of enzyme (1/1600 dilution from aliquots; sufficient to produce 20% substrate conversion) and a separate solution of FAM-labeled cAMP PDE from Molecular Devices (product #R7506), at a final concentration of 50 nM are made in the assay buffer (10 mM Tris HCl, pH 7.2, 10 mM MgCl2, 0.05% NaN3 0.01% Tween-20, and 1 mM DTT). The enzyme and the substrate are then added to the assay plates in two consecutive additions of 10 μL, and then shaken to mix. The reaction is allowed to proceed at room temperature for 30 minutes. A binding solution is then made from the kit components, comprised of 80% Solution A, 20% Solution B and binding reagent at a volume of 1/600 the total binding solution.

Chain of human PDE10A2 (Q9Y233 267-1055): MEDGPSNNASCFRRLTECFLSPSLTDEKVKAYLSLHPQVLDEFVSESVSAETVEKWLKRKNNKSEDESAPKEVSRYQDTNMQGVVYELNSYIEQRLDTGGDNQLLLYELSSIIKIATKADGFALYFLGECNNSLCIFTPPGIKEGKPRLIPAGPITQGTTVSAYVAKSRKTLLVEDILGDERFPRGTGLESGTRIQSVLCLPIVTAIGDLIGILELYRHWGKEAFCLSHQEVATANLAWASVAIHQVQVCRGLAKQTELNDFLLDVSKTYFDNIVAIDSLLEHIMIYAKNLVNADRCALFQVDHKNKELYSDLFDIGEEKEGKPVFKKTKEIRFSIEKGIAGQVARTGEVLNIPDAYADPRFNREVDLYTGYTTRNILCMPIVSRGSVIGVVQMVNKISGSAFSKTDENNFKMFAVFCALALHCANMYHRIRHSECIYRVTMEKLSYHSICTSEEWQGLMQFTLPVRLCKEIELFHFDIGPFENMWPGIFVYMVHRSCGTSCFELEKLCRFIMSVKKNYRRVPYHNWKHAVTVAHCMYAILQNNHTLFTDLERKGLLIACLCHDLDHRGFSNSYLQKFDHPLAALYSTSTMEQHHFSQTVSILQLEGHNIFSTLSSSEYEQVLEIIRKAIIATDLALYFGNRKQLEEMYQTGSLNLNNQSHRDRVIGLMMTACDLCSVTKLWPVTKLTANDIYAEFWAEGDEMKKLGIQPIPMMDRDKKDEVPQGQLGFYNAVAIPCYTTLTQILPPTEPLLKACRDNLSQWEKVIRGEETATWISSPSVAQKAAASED

| pKi | Molecule |
| --- | --- |
| 10.57 | CCc1cc(CNc2cc(OC[C@H]3C[C@@H]3c3ccc(C)cn3)nn(C)c2=O)n(C)n1 [Example 138, 4-((3-ethyl-1-methyl-1H-pyrazol-5-yl)methylamino)-2-methyl-6-(((1S,2S)-2-(5-methylpyridin-2-yl)cyclopropyl)methoxy) pyridazin-3(2H)-one] |
| 10.29 | Cc1ccc(CNc2cc(OC[C@H]3C[C@@H]3c3ccc(C)cn3)nn(C)c2=O)nc1 [Example 9, 2-methyl-6-(((1S,2S)-2-(5-methylpyridin-2-yl)cyclopropyl)methoxy)-4-((5-methylpyridin-2-yl)methylamino)pyridazin-3(2H)-one] |
| 8.57 | COc1ccc([C@H]2C[C@@H]2COc2cc(NCc3cccc(C)n3)c(=O)n(C)n2)nc1 [Example 97, 6-(((1S,2S)-2-(5-methoxypyridin-2-yl)-cyclopropyl)methoxy)-2-methyl-4-(((6-methyl-pyridin-2-yl)methyl)-amino)pyridazin-3(2H)one] |
| 9.92 | Cc1ccc([C@H]2C[C@@H]2COc2cc(NCc3ccc(C)nc3)c(=O)n(C)n2)nc1 [Example 11, 2-methyl-6-(((1S,2S)-2-(5-methylpyridin-2-yl)cyclopropyl)methoxy)-4-((6-methylpyridin-3-yl)methylamino)pyridazin-3(2H)-one] |
| 8.96 | Cc1ccc([C@H]2C[C@@H]2COc2cc(NCc3cnn4ccccc34)c(=O)n(C)n2)nc1 [Example 79, 2-methyl-6-(((1S,2S)-2-(5-methylpyridin-2-yl)cyclopropyl)methoxy)-4-((pyrazolo[1,5-a]pyridin-3-ylmethyl)amino)-pyridazin-3(2H)-one] |
| 9.86 | Cc1ccc([C@H]2C[C@@H]2COc2cc(NCc3ccnn3C)c(=O)n(C)n2)nc1 [Example 99, 2-methyl-4-(((1-methyl-1H-pyrazol-5-yl)methyl-)amino)-6-(((1S,2S)-2-(5-methylpyridin-2-yl)cyclo-propyl)methoxy)pyridazin-3(2H)-one] |
| 9.53 | CCc1cc(CNc2cc(OC[C@H]3C[C@@H]3c3ccn(C)n3)nn(C)c2=O)n(C)n1 [Example 139, 4-((3-ethyl-1-methyl-1H-pyrazol-5-yl)methylamino)-2-methyl-6-(((1S,2S)-2-(1-methyl-1H-pyrazol-3-yl)cyclopropyl)methoxy) pyridazin-3(2H)-one] |
| 10.28 | COc1ccc([C@H]2C[C@@H]2COc2cc(NCc3cccnc3C)c(=O)n(C)n2)nc1 [Example 65, 6-(((1S,2S)-2-(5-methoxy-pyridin-2-yl)cyclopropyl-)-methoxy)-2-methyl-4-(((2-methylpyridin-3-yl)-methyl)amino)pyridazin-3(2H)-one] |
| 10.36 | Cc1cc(CNc2cc(OC[C@H]3C[C@@H]3c3ccn(C)n3)nn(C)c2=O)n(C)n1 [Example 21, 4-((1,3-dimethyl-1H-pyrazol-5-yl)methylamino)-2-methyl-6-(((1S,2S)-2-(1-methyl-1H-pyrazol-3-yl)cyclopropyl)methoxy)-pyridazin-3(2H)-one] |
| 11.70 | Cc1cnc(CNc2cc(OC[C@H]3C[C@@H]3c3ccc4c(n3)CCC4)nn(C)c2=O)s1 [Example 124, 6-(((1S,2S)-2-(6,7-dihydro-5H-cyclopenta-[b]pyridin-2-yl)cyclopropyl)methoxy)-2-methy-4-((5-methylthiazol-2-yl)-methylamino-)pyridazin-3(2H)-one] |
| 10.01 | Cc1cnc(CNc2cc(OC[C@H]3C[C@@H]3c3ccn(C)n3)nn(C)c2=O)s1 [Example 26, 2-methyl-6-(((1S,2S)-2-(1-methyl-1H-pyrazol-3-yl)cyclopropyl)methoxy)-4-((5-methylthiazol-2-yl)methylamino)pyridazin-3(2H)-one] |
| 8.89 | COc1ccc(CNc2cc(OC[C@H]3C[C@@H]3c3ccc(F)cn3)nn(C)c2=O)cc1 [Example 15, 6-(((1S,2S)-2-(5-fluoro-pyridin-2-yl)-cyclopropyl-)-methoxy)-4-(4-methoxy-benzylamino)-2-methyl-pyridazin-3(2H)-one] |
| 11.52 | COc1ccc([C@H]2C[C@@H]2COc2cc(NCc3ccc(C)nc3C)c(=O)n(C)n2)nc1 [Example 50, 4-(((2,6-dimethylpyridin-3-yl)methyl)amino)-6-(((1S,2S)-2-(5-methoxypyridin-2-yl)cyclopropyl)methoxy)-2-methylpyridazin-3(2H)-one] |
| 11.00 | COc1ccc([C@H]2C[C@@H]2COc2cc(NCc3cc(C)on3)c(=O)n(C)n2)nc1 [Example 87, 6-(((1S,2S)-2-(5-methoxypyridin-2-yl)cyclopropyl)methoxy)-2-methyl-4-(((5-methylisoxazol-3-yl)methyl)amino)pyridazin-3(2H)-one] |
| 9.32 | Cn1cc(CNc2cc(OC[C@H]3C[C@@H]3c3ccn(C)n3)nn(C)c2=O)cn1 [Example 23, 2-methyl-6-(((1S,2S)-2-(1-methyl-1H-pyrazol-3-yl)cyclopropyl)methoxy)-4-((1-methyl-1H-pyrazol-4-yl)methylamino)-pyridazin-3(2H)-one] |
| 11.40 | COc1ccc([C@H]2C[C@@H]2COc2cc(NCc3ncc(C)s3)c(=O)n(C)n2)nc1 [Example 130, 6-(((1S,2S)-2-(5-methoxy-pyridin-2-yl)cyclopropyl-)methoxy)-2-methyl-4-((5-methyl-thiazol-2-yl)-methylamino-)pyridazin-3(2H)-one] |
| 8.23 | CCn1ccc(CNc2cc(OC[C@H]3C[C@@H]3c3ccc(OC)cn3)nn(C)c2=O)n1 [Example 106, 4-(((1-ethyl-1H-pyrazol-3-yl)methyl)amino)-6-(((-1S,2S)-2-(5-methoxy-pyridin-2-yl)cyclopropyl-)methoxy)-2-methyl-pyridazin-3(2H)-one] |
| 7.49 | COc1ccc([C@H]2C[C@@H]2COc2cc(NCc3ncccc3C)c(=O)n(C)n2)nc1 [Example 73, 6-(((1S,2S)-2-(5-methoxypyridin-2-yl)cyclopropyl)methoxy)-2-methyl-4-(((3-methyl-pyridin-2-yl)methyl)-amino)pyridazin-3(2H)one] |
| 9.96 | Cc1ncc(CNc2cc(OC[C@H]3C[C@@H]3c3ccc(OC(F)F)cn3)nn(C)c2=O)s1 [Example 29, 6-(((1S,2S)-2-(5-(difluoromethoxy)pyridin-2-yl)cyclopropyl)-methoxy)-2-methyl-4-((2-methylthiazol-5-yl)methyl-amino)pyridazin-3(2H)one] |
| 9.39 | COc1ccc([C@H]2C[C@@H]2COc2cc(NCc3ccc(C)c(C)n3)c(=O)n(C)n2)nc1 [Example 69, 4-(((5,6-dimethylpyridin-2-yl)methyl)amino)-6-(((1S,2S)-2-(5-methoxy-pyridin-2-yl)cyclopropyl-)-methoxy)-2-methyl-pyridazin-3(2H)-one] |

| Molecule | pKi |
| --- | --- |
| 6-(((1S,2S)-2-(5- methoxypyridin-2- yl)cyclopropyl)methoxy)- 2-methyl-4-(((2-methyl- thiazol-4- yl)methyl)amino-)- pyridazin-3(2H)-one [Example 49] | 7.78 |
| Cc1ncc(CNc2cc(OC[C@H]3C[C@@H]3c3ccn(C)n3)nn(C)c2=O)s1 [Example 2, 2-methyl-6-(((1S,2S)-2-(1-methyl-1H-pyrazol-3-yl)cyclopropyl)methoxy)-4-((2-methylthiazol-5-yl)methylamino)pyridazin-3(2H)-one] | 10.05 |
